These results are taken from patent publication US9580513B2, “VHZ for diagnosis and treatment of cancers” (AGENCY FOR SCIENCE, TECHNOLOGY AND RESEARCH (A*STAR), priority 2008, dated 2017).

The target of one assay is T1, VHZ-GST (Homo sapiens, UniProt Q9BVJ7).
T1 construct: made in house
T1 sequence (Q9BVJ7 1-150): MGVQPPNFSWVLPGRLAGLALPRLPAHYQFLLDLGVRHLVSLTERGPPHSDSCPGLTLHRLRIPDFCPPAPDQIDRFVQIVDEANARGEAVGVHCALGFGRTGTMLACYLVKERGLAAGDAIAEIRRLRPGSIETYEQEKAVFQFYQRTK
As to the kind of experiment: Tyrosine phosphatase assay (ENZCHEK kit, fluorogenic substrate). In kind it is biochemical. As to conditions: 10 μM sodium orthovanadate added to the reaction; 0.675 picomoles VHZ-GST. How it is done:
FIG. 3A. We test each protein (0.675 picomoles) for its PTPase activity.
The ENZCHEK™ kit (Invitrogen, R22065) is used. As per the manufacturer's protocol, the fluorogenic substrate is reconstituted in the assay wells with buffer; the desired potential PTPases (0.675 picomole for each protein: VHZ-GST, VHZ-GST+Phosphatase inhibitor, VHZ(C95S)-GST, and control GST) are added to the wells and incubated 30 min or 90 min respectively. The fluorescence is then quantified using a Gemini XPS microplate spectrofluorometer (Molecular Devices). Fluorescence is measured at 10 minute intervals at the excitation and emission wavelengths of 358 and 452 nm, respectively. The phosphatase inhibitor sodium orthovanadate (10 μM) is used in the assay as a negative control.
The PTPase activities of VHZ-GST, indicated by increasing blue fluorescence (excitation/emission maxima ˜358/452 nm), are abolished either by mutation of Cys 95 to Ser or by adding phosphatase inhibitor (sodium orthovanadate) into the assay (FIG. 3A, Panel A).

For assay [1], the system named is HCT116 colon cancer cells that express VHZ. As to the kind of experiment: Formation of tumours by HCT116 colon cancer cells injected via the tail vein of nude mice. As to conditions: 1×10^6 HCT116 cells via tail vein on day 1; chimeric mAb into tail vein from day 3, then two administrations weekly; compared with PBS (untreated). It is filed as in vivo. From the text: FIG. 15B. Either PBS (untreated) or chimeric mAb (treated) is administrated into tail vein starting the first treatment on day 3; followed by two administrations weekly. Experiment periods: Top two animals starting 11 Feb.-2 Apr. 2009 bottom two animals starting 11 Feb.-13 Apr. 2009.
All animal studies have been approved by the Institutional Review Board of the IMCB. We follow strictly rules and policies of the Animal Facility Center of The Agency for Science, Technology and Research (A* STAR), Singapore. Nine-week old nude mice (Jackson Labs, USA) are used.
By western blot we confirm that HCT116 colon cancer cell line is VHZ positive comparing with MDCK cell line. 1×10^6 HCT116 cancer cells were injected into the circulation of nude mice via the tail vein on day 1.
Either PBS (untreated) or chimeric mAb (treated) was administrated into tail vein starting the first treatment on day 3; followed by two administrations weekly. Experiment periods: Top two animals starting 11 Feb.-2 Apr. 2009 bottom two animals starting 11 Feb.-13 Apr. 2009.

For the molecule `[Na+].[Na+].[Na+].[O]=[V]([O-])([O-])[O-]` [sodium orthovanadate], on VHZ-GST, the “PTPase activity of VHZ” value is “completely abolished”.

B1: VHZ human/mouse Chimeric mAb (Clone #209): mouse variable regions of hybridoma clone #209 (SEQ ID NO: 4 and 5) joined with human IgG1 constant region (antibody, listed as Mus musculus, V domains shown)
VH: LVDMDSRLNLVFLVLILKGVQCDVQLVESGGGLVQPGGSRKLSCAASGFTFSSFGMHWVRQAPEKGLEWVAYISSGSSTIYYADTVKGRFTISRDNPKNTLFLQMTSLRSEDTAMYYCARWQTARATRGYAMDYWGQGTSVTVSS
VL: VMTQSHKFMSTSVGDRVSITCKASQDVNTAVAWYQQKPGQSPKLLIYSASYRFTGVPDLFTGSGSGTDFTFTINSVQAEDLAVYYCQQHYSSPWTFGGGTKLEIKRADAAPTVSIFHHPVSLG
modifications: human IgG1 constant regions lacking entries
Turning to B1, in assay [1], the “formation of tumours by HCT116 colon cancer cells” value is on record as “effectively inhibits the formation of tumours”.
